According to the NIST ThermoML archive (doi:10.1016/j.fluid.2016.02.009):
Numbers after ± are expanded uncertainties.

Conditions: Liquid, Vibrating tube method

CC(C)CCOCCC(C)C [di-(3-methylbutyl) ether]
Conditions | mass density [kg/m3]
283.15 K, 100 kPa | 782.76 ± 0.3
283.15 K, 5000 kPa | 786.88 ± 0.32
283.15 K, 10000 kPa | 790.71 ± 0.35
283.15 K, 15000 kPa | 794.36 ± 0.38
283.15 K, 20000 kPa | 797.85 ± 0.41
283.15 K, 25000 kPa | 801.22 ± 0.44
283.15 K, 30000 kPa | 804.45 ± 0.47
283.15 K, 35000 kPa | 807.58 ± 0.5
283.15 K, 40000 kPa | 810.61 ± 0.53
283.15 K, 45000 kPa | 813.52 ± 0.56
283.15 K, 50000 kPa | 816.37 ± 0.59
283.15 K, 55000 kPa | 819.14 ± 0.62
283.15 K, 60000 kPa | 821.82 ± 0.65
283.15 K, 65000 kPa | 824.44 ± 0.68
288.15 K, 100 kPa | 778.71 ± 0.3
288.15 K, 5000 kPa | 782.95 ± 0.32
288.15 K, 10000 kPa | 786.89 ± 0.35
288.15 K, 15000 kPa | 790.64 ± 0.38
288.15 K, 20000 kPa | 794.22 ± 0.41
288.15 K, 25000 kPa | 797.65 ± 0.44
288.15 K, 30000 kPa | 800.95 ± 0.47
288.15 K, 35000 kPa | 804.15 ± 0.5
288.15 K, 40000 kPa | 807.23 ± 0.53
288.15 K, 45000 kPa | 810.19 ± 0.57
288.15 K, 50000 kPa | 813.09 ± 0.6
288.15 K, 55000 kPa | 815.91 ± 0.63
288.15 K, 60000 kPa | 818.64 ± 0.66
288.15 K, 65000 kPa | 821.33 ± 0.68
293.15 K, 100 kPa | 774.66 ± 0.3
293.15 K, 5000 kPa | 779.03 ± 0.32
293.15 K, 10000 kPa | 783.04 ± 0.35
293.15 K, 15000 kPa | 786.89 ± 0.38
293.15 K, 20000 kPa | 790.55 ± 0.41
293.15 K, 25000 kPa | 794.08 ± 0.44
293.15 K, 30000 kPa | 797.46 ± 0.47
293.15 K, 35000 kPa | 800.71 ± 0.51
293.15 K, 40000 kPa | 803.86 ± 0.54
293.15 K, 45000 kPa | 806.9 ± 0.57
293.15 K, 50000 kPa | 809.84 ± 0.6
293.15 K, 55000 kPa | 812.71 ± 0.63
293.15 K, 60000 kPa | 815.48 ± 0.66
293.15 K, 65000 kPa | 818.18 ± 0.69
298.15 K, 100 kPa | 770.6 ± 0.3
298.15 K, 5000 kPa | 775.09 ± 0.33
298.15 K, 10000 kPa | 779.24 ± 0.36
298.15 K, 15000 kPa | 783.18 ± 0.39
298.15 K, 20000 kPa | 786.94 ± 0.42
298.15 K, 25000 kPa | 790.54 ± 0.45
298.15 K, 30000 kPa | 793.99 ± 0.48
298.15 K, 35000 kPa | 797.31 ± 0.51
298.15 K, 40000 kPa | 800.51 ± 0.54
298.15 K, 45000 kPa | 803.61 ± 0.58
298.15 K, 50000 kPa | 806.62 ± 0.61
298.15 K, 55000 kPa | 809.51 ± 0.64
298.15 K, 60000 kPa | 812.33 ± 0.67
298.15 K, 65000 kPa | 815.07 ± 0.7
303.15 K, 100 kPa | 766.54 ± 0.3
303.15 K, 5000 kPa | 771.15 ± 0.33
303.15 K, 10000 kPa | 775.41 ± 0.36
303.15 K, 15000 kPa | 779.46 ± 0.39
303.15 K, 20000 kPa | 783.3 ± 0.42
303.15 K, 25000 kPa | 786.98 ± 0.45
303.15 K, 30000 kPa | 790.53 ± 0.48
303.15 K, 35000 kPa | 793.91 ± 0.51
303.15 K, 40000 kPa | 797.19 ± 0.55
303.15 K, 45000 kPa | 800.34 ± 0.58
303.15 K, 50000 kPa | 803.4 ± 0.62
303.15 K, 55000 kPa | 806.36 ± 0.65
303.15 K, 60000 kPa | 809.23 ± 0.68
303.15 K, 65000 kPa | 812.01 ± 0.71
308.15 K, 100 kPa | 762.46 ± 0.3
308.15 K, 5000 kPa | 767.21 ± 0.33
308.15 K, 10000 kPa | 771.57 ± 0.36
308.15 K, 15000 kPa | 775.74 ± 0.39
308.15 K, 20000 kPa | 779.67 ± 0.42
308.15 K, 25000 kPa | 783.45 ± 0.45
308.15 K, 30000 kPa | 787.05 ± 0.48
308.15 K, 35000 kPa | 790.52 ± 0.52
308.15 K, 40000 kPa | 793.86 ± 0.55
308.15 K, 45000 kPa | 797.07 ± 0.59
308.15 K, 50000 kPa | 800.19 ± 0.62
308.15 K, 55000 kPa | 803.2 ± 0.65
308.15 K, 60000 kPa | 806.11 ± 0.69
308.15 K, 65000 kPa | 808.94 ± 0.72
313.15 K, 100 kPa | 758.37 ± 0.3
313.15 K, 5000 kPa | 763.24 ± 0.33
313.15 K, 10000 kPa | 767.74 ± 0.36
313.15 K, 15000 kPa | 772.01 ± 0.39
313.15 K, 20000 kPa | 776.05 ± 0.42
313.15 K, 25000 kPa | 779.9 ± 0.46
313.15 K, 30000 kPa | 783.59 ± 0.49
313.15 K, 35000 kPa | 787.12 ± 0.52
313.15 K, 40000 kPa | 790.53 ± 0.56
313.15 K, 45000 kPa | 793.81 ± 0.59
313.15 K, 50000 kPa | 796.97 ± 0.63
313.15 K, 55000 kPa | 800.03 ± 0.66
313.15 K, 60000 kPa | 803 ± 0.69
313.15 K, 65000 kPa | 805.88 ± 0.72
318.15 K, 100 kPa | 754.27 ± 0.3
318.15 K, 5000 kPa | 759.27 ± 0.33
318.15 K, 10000 kPa | 763.91 ± 0.36
318.15 K, 15000 kPa | 768.28 ± 0.39
318.15 K, 20000 kPa | 772.42 ± 0.43
318.15 K, 25000 kPa | 776.38 ± 0.46
318.15 K, 30000 kPa | 780.14 ± 0.49
318.15 K, 35000 kPa | 783.75 ± 0.53
318.15 K, 40000 kPa | 787.22 ± 0.57
318.15 K, 45000 kPa | 790.57 ± 0.6
318.15 K, 50000 kPa | 793.81 ± 0.63
318.15 K, 55000 kPa | 796.91 ± 0.67
318.15 K, 60000 kPa | 799.93 ± 0.7
318.15 K, 65000 kPa | 802.85 ± 0.73
323.15 K, 100 kPa | 750.16 ± 0.3
323.15 K, 5000 kPa | 755.32 ± 0.33
323.15 K, 10000 kPa | 760.1 ± 0.36
323.15 K, 15000 kPa | 764.59 ± 0.4
323.15 K, 20000 kPa | 768.84 ± 0.43
323.15 K, 25000 kPa | 772.87 ± 0.46
323.15 K, 30000 kPa | 776.74 ± 0.5
323.15 K, 35000 kPa | 780.43 ± 0.53
323.15 K, 40000 kPa | 783.97 ± 0.57
323.15 K, 45000 kPa | 787.37 ± 0.61
323.15 K, 50000 kPa | 790.66 ± 0.64
323.15 K, 55000 kPa | 793.83 ± 0.67
323.15 K, 60000 kPa | 796.89 ± 0.71
323.15 K, 65000 kPa | 799.86 ± 0.74
328.15 K, 100 kPa | 746.03 ± 0.3
328.15 K, 5000 kPa | 751.35 ± 0.33
328.15 K, 10000 kPa | 756.23 ± 0.36
328.15 K, 15000 kPa | 760.85 ± 0.4
328.15 K, 20000 kPa | 765.22 ± 0.43
328.15 K, 25000 kPa | 769.33 ± 0.47
328.15 K, 30000 kPa | 773.28 ± 0.5
328.15 K, 35000 kPa | 777.06 ± 0.54
328.15 K, 40000 kPa | 780.66 ± 0.58
328.15 K, 45000 kPa | 784.15 ± 0.61
328.15 K, 50000 kPa | 787.49 ± 0.65
328.15 K, 55000 kPa | 790.7 ± 0.68
328.15 K, 60000 kPa | 793.83 ± 0.71
328.15 K, 65000 kPa | 796.84 ± 0.75
333.15 K, 100 kPa | 741.88 ± 0.3
333.15 K, 5000 kPa | 747.34 ± 0.33
333.15 K, 10000 kPa | 752.39 ± 0.37
333.15 K, 15000 kPa | 757.12 ± 0.4
333.15 K, 20000 kPa | 761.58 ± 0.43
333.15 K, 25000 kPa | 765.79 ± 0.47
333.15 K, 30000 kPa | 769.84 ± 0.5
333.15 K, 35000 kPa | 773.7 ± 0.54
333.15 K, 40000 kPa | 777.39 ± 0.58
333.15 K, 45000 kPa | 780.93 ± 0.62
333.15 K, 50000 kPa | 784.33 ± 0.65
333.15 K, 55000 kPa | 787.59 ± 0.69
333.15 K, 60000 kPa | 790.76 ± 0.72
333.15 K, 65000 kPa | 793.83 ± 0.75
